In DBAASP:
≈ marks a conversion by molar mass, not a printed value.

What was measured:
Assay in all cases: ≥ marks a high value that may be exact or a test limit, other limits are often not marked, values filed in µg/mL are converted to µM
[1] = tested on: Pseudomonas aeruginosa ATCC 27853
Bacillus subtilis 168 = tested on: Bacillus subtilis 168
Escherichia coli B = tested on: Escherichia coli B
Staphylococcus aureus = tested on: Staphylococcus aureus
[2] = tested on: Micrococcus luteus CCM 144
[3] = tested on: Staphylococcus epidermidis
Pseudomonas aeruginosa = tested on: Pseudomonas aeruginosa
[4] = tested on: Staphylococcus aureus ATCC 43300
[5] = tested on: Candida albicans F7-39/IDE99
Salmonella typhimurium = tested on: Salmonella typhimurium
Escherichia coli HB101 = tested on: Escherichia coli HB101
Bacillus subtilis = tested on: Bacillus subtilis
Escherichia coli UB1005 = tested on: Escherichia coli UB1005
[6] = tested on: Enterococcus faecalis ATCC 29212
[7] = tested on: Salmonella enterica subsp. enterica serovar Typhimurium C77-31
[8] = tested on: Salmonella enterica subsp. enterica serovar Pullorum C79-13
[9] = tested on: Salmonella enterica subsp. enterica serovar Typhimurium ATCC 14028
[10] = tested on: Staphylococcus epidermidis ATCC 12228
[11] = tested on: Escherichia coli ATCC 25922
[12] = tested on: Staphylococcus aureus ATCC 29213
Escherichia coli BW25113 = tested on: Escherichia coli BW25113
[13] = tested on: Pseudomonas syringae pv. syringae DSM 10604
[14] = tested on: Pseudomonas syringae pv. tomato DC3000
[15] = tested on: Pseudomonas corrugata DSM 7228
[16] = tested on: Xanthomonas vesicatoria DSM 50861
[17] = tested on: Clavibacter michiganensis subsp. michiganensis DSM 46294
[18] = tested on: Pectobacterium carotovorum subsp. carotovorum DSM 30168

MIC [1] [µM]	MIC (Bacillus subtilis 168) [µM]	MIC (Escherichia coli B) [µM]	MIC (Staphylococcus aureus) [µM]	MIC [2] [µM]	MIC (Pseudomonas aeruginosa) [µM]	MIC [5] [µM]	other results	SMILES
98 (≈ 177 µg/mL)	≥ 49	≥ 100	> 100	5.8 (≈ 10.5 µg/mL)	> 100	≥ 100	MIC [3]: ≥ 100 µM; MIC [4]: > 100 µM	CC[C@H](C)[C@H](NC(=O)CN)C(=O)N[C@@H](CC(C)C)C(=O)N[C@@H](CO)C(=O)N[C@@H](CO)C(=O)N[C@@H](CC(C)C)C(=O)N[C@@H](Cc1c[nH]c2ccccc12)C(=O)N[C@@H](CCCCN)C(=O)N[C@@H](CCCCN)C(=O)N1CCC[C@H]1C(=O)N[C@@H](CCCCN)C(=O)N[C@@H](CCCCN)C(=O)N[C@H](C(=O)N[C@H](C(=O)N[C@@H](C)C(=O)N[C@@H](CCCCN)C(N)=O)[C@@H](C)CC)[C@@H](C)CC [GILSSLWKKPKKIIAK]
8 (≈ 13.4 µg/mL)	7 (≈ 11.7 µg/mL)	3.6 (≈ 6.03 µg/mL)	10 (≈ 16.7 µg/mL)	3 (≈ 5.02 µg/mL)	17 (≈ 28.5 µg/mL)	8.4 (≈ 14.1 µg/mL)	MIC [3]: 5 µM (≈ 8.37 µg/mL); MIC [4]: 7.2 µM (≈ 12.1 µg/mL)	CC[C@H](C)[C@H](NC(=O)CN)C(=O)N[C@@H](CCSC)C(=O)N[C@@H](CO)C(=O)N[C@@H](CO)C(=O)N[C@@H](CC(C)C)C(=O)N[C@@H](CCSC)C(=O)N[C@@H](CCCCN)C(=O)N[C@@H](CCCCN)C(=O)N[C@@H](CC(C)C)C(=O)N[C@@H](C)C(=O)N[C@@H](C)C(=O)N[C@H](C(=O)N[C@H](C(=O)N[C@@H](C)C(=O)N[C@@H](CCCCN)C(N)=O)[C@@H](C)CC)[C@@H](C)CC [GIMSSLMKKLAAIIAK]
–	3.4 (≈ 6.49 µg/mL)	1.8 (≈ 3.44 µg/mL)	3.5 (≈ 6.68 µg/mL)	1.2 (≈ 2.29 µg/mL)	47.5 (≈ 90.7 µg/mL)	12.1 (≈ 23.1 µg/mL)	–	CC[C@H](C)[C@H](NC(=O)[C@H](CC(C)C)NC(=O)[C@H](CCCCN)NC(=O)[C@@H](NC(=O)[C@@H](NC(=O)[C@H](CCCCN)NC(=O)[C@@H]1CCCN1C(=O)[C@H](CC(C)C)NC(=O)[C@@H](NC(=O)[C@H](CCCCN)NC(=O)[C@H](C)NC(=O)[C@H](CC(C)C)NC(=O)[C@H](CC(C)C)NC(=O)[C@H](CO)NC(=O)[C@H](C)NC(=O)[C@H](CCSC)NC(=O)CN)C(C)C)C(C)C)C(C)C)C(=O)N[C@@H](CCCCN)C(=O)O [GMASLLAKVLPKVVKLIK]
–	–	–	10.4 (≈ 23.7 µg/mL)	–	10.4 (≈ 23.7 µg/mL)	–	MIC (Salmonella typhimurium): 1.3 µM (≈ 2.96 µg/mL); MIC (Escherichia coli HB101): 2.6 µM (≈ 5.92 µg/mL); MIC (Bacillus subtilis): 5.2 µM (≈ 11.8 µg/mL)	CC[C@H](C)[C@H](NC(=O)[C@@H](NC(=O)[C@@H]1CCCN1C(=O)[C@@H](NC(=O)[C@@H]1CCCN1C(=O)[C@H](CCCCN)NC(=O)[C@H](CCCCN)NC(=O)[C@H](CO)NC(=O)CN)C(C)C)[C@@H](C)CC)C(=O)N[C@@H](Cc1ccc(O)cc1)C(=O)N[C@H]1CSSC[C@@H](C(=O)N[C@@H](CCC(N)=O)C(=O)N[C@@H](CCCN=C(N)N)C(=O)N[C@@H](CCSC)C(=O)O)NC(=O)[C@H](CCCCN)NC(=O)[C@H](CCCN=C(N)N)NC(=O)[C@H](CCCN=C(N)N)NC(=O)[C@H](CC(N)=O)NC1=O [GSKKPVPIIYCNRRKCQRM]
4 (≈ 12.4 µg/mL)	–	–	–	–	–	–	MIC (Escherichia coli UB1005): 2 µM (≈ 6.21 µg/mL); MIC [6]: 4 µM (≈ 12.4 µg/mL); MIC [7]: 4 µM (≈ 12.4 µg/mL); MIC [8]: 8 µM (≈ 24.8 µg/mL); MIC [9]: 4 µM (≈ 12.4 µg/mL); MIC [10]: 4 µM (≈ 12.4 µg/mL)	CC[C@H](C)[C@H](NC(=O)[C@H](CCCCN)NC(=O)[C@H](CCCCN)NC(=O)[C@H](Cc1ccccc1)NC(=O)[C@H](CC(C)C)NC(=O)[C@H](CCCCN)NC(=O)[C@H](Cc1c[nH]c2ccccc12)NC(=O)[C@@H](N)CCCCN)C(=O)N[C@@H](CCCN=C(N)N)C(=O)N[C@@H](Cc1ccccc1)C(=O)NCC(=O)N[C@@H](CCCN=C(N)N)C(=O)N[C@@H](Cc1ccccc1)C(=O)N[C@@H](CC(C)C)C(=O)N[C@@H](CCCN=C(N)N)C(=O)N[C@@H](CCCCN)C(=O)N[C@H](C(=O)N[C@@H](CCCN=C(N)N)C(=O)N[C@@H](CCCN=C(N)N)C(=O)N[C@@H](Cc1ccccc1)C(=O)N[C@@H](CCCN=C(N)N)C(=O)N1CCC[C@H]1C(=O)N[C@@H](CCCCN)C(N)=O)[C@@H](C)CC [KWKLFKKIRFGRFLRKIRRFRPK]
–	≥ 65	≥ 100	> 100	≥ 100	> 100	≥ 100	–	CC[C@H](C)[C@H](NC(=O)[C@H](C)NC(=O)CNC(=O)[C@H](CCCCN)NC(=O)[C@H](CC(N)=O)NC(=O)[C@@H](N)CC(C)C)C(=O)N[C@@H](CC(C)C)C(=O)N[C@@H](CCCCN)C(=O)N[C@@H](Cc1cnc[nH]1)C(=O)N[C@H](C(=O)N[C@H](C(=O)N[C@@H](CCCCN)C(N)=O)[C@@H](C)CC)[C@@H](C)CC [LNKGAILKHIIK]
–	–	–	–	–	–	–	MIC [11]: > 128 µM; MIC [12]: > 128 µM; MIC [6]: > 128 µM; MIC [7]: ≥ 128 µM; MIC [8]: ≥ 128 µM; MIC [10]: > 128 µM	CC(C)C[C@H](NC(=O)[C@@H](NC(=O)[C@@H](NC(=O)[C@@H](N)CC(C)C)C(C)C)[C@@H](C)O)C(=O)N[C@H](C(=O)N[C@@H](Cc1ccccc1)C(=O)N[C@H](C(=O)NCC(=O)NCC(=O)NCC(=O)N[C@@H](Cc1c[nH]c2ccccc12)C(=O)N[C@@H](CCCCN)C(=O)N[C@@H](Cc1c[nH]c2ccccc12)C(=O)N[C@@H](CCCCN)C(=O)N[C@@H](Cc1c[nH]c2ccccc12)C(=O)N[C@@H](CCC(=O)O)C(=O)N[C@@H](CC(N)=O)C(=O)NCC(=O)N[C@@H](CCCCN)C(=O)N[C@@H](Cc1c[nH]c2ccccc12)C(=O)N[C@@H](CCCCN)C(=O)N[C@@H](Cc1c[nH]c2ccccc12)C(=O)N[C@@H](CCC(N)=O)C(=O)N[C@@H](Cc1c[nH]c2ccccc12)C(=O)O)C(C)C)C(C)C [LVTLVFVGGGWKWKWENGKWKWQW]
–	–	–	–	–	–	–	MIC (Escherichia coli BW25113): 8 µM (≈ 17.9 µg/mL)	CC[C@H](C)[C@H](NC(=O)[C@@H]1CCCN1C(=O)[C@@H]1CCCN1C(=O)[C@H](CCCN=C(N)N)NC(=O)[C@H](CCCN=C(N)N)NC(=O)[C@H](Cc1c[nH]c2ccccc12)NC(=O)[C@@H]1CCCN1C(=O)[C@@H]1CCCN1C(=O)[C@H](CCCN=C(N)N)NC(=O)[C@H](Cc1ccccc1)NC(=O)[C@@H](N)CCCN=C(N)N)C(=O)N[C@@H](CCCN=C(N)N)C(=O)N1CCC[C@H]1C(=O)N1CCC[C@H]1C(=O)N[C@@H](Cc1ccccc1)C(=O)N[C@@H](Cc1ccc(O)cc1)C(=O)N1CCC[C@H]1C(=O)O [RFRPPWRRPPIRPPFYP]
–	–	–	–	–	–	–	MIC [13]: 0.0633 µM (≈ 0.1 µg/mL); MIC [14]: 0.633 µM (≈ 0.999 µg/mL); MIC [15]: 0.158 µM (≈ 0.25 µg/mL); MIC [16]: 3.16 µM (≈ 5 µg/mL); MIC [17]: 3.16 µM (≈ 5 µg/mL); MIC [18]: 6.33 µM (≈ 9.99 µg/mL)	CC(C)C[C@H](NC(=O)[C@H](CC(C)C)NC(=O)[C@H](CCCN=C(N)N)NC(=O)[C@H](CCCCN)NC(=O)[C@H](CC(C)C)NC(=O)[C@H](CC(C)C)NC(=O)[C@H](CCCCN)NC(=O)[C@H](CCCCN)NC(=O)[C@H](CCCN=C(N)N)NC(=O)[C@H](CCCCN)NC(=O)[C@H](CCCCN)NC(=O)[C@@H](N)CCCN=C(N)N)C(N)=O [RKKRKKLLKRLL]
–	–	–	–	–	–	–	MIC [11]: > 128 µM; MIC (Escherichia coli HB101): ≥ 128 µM	CC[C@H](C)[C@H](NC(=O)[C@H](CCCN=C(N)N)NC(=O)[C@@H](N)CCCN=C(N)N)C(=O)N[C@@H](CCCN=C(N)N)C(=O)N1CCC[C@H]1C(=O)N[C@@H](CCCN=C(N)N)C(=O)N1CCC[C@H]1C(=O)N[C@@H](CCCN=C(N)N)C(=O)N[C@@H](CS)C(=O)O [RRIRPRPRC]
